Test results: patent US10646565B2, “Treatment of alzheimer'S disease (AD) with an aluminum salt” (AFFIRIS AG, priority 2014, dated 2020)
“Also recorded” adds a separate entry of the source.

What was measured:
patients with early AD [1] = assay: AFF006 clinical trial: patient disposition, reason for discontinuation; assay type: in vivo, human
Procedure: Data supporting the invention are derived from a randomized clinical trial in early AD patients. The study (AFF006; Eudract: 2009-016504-22) randomized early AD patients into 5 treatment arms. Patients of 2 study arms received either 1 mg aluminium or 2 mg aluminium. In total, 99 early AD patients were enrolled into the 2 study arms. Participation of a given patient lasted 18 months.
(§1) AFF006 was conducted as a randomized, placebo-controlled, parallel group, double-blind, multi-center phase II study and assessed the clinical and immunological activity as well as the safety and tolerability of repeated s.c. administrations of i.a. aluminium (different doses) in patients with early AD, as defined in the protocol. It was performed in a total of 6 countries: Austria, France, Germany, Slovakia, Czech Republic and Croatia.
(§2) The clinical trial comprised 10 regular outpatient visits and 6 telephone interviews. Up to four weeks before start of treatment, a screening visit (Visit 1) was performed to ensure suitability of the patients for the clinical trial and to establish the patients' baseline characteristics. Following screening, eligible patients were randomly allocated to the treatment groups. After randomization at week 0, patients received 6 injections with either 1 or 2 mg aluminium. Injections were applied s.c. by the investigator at weeks 0, 4, 8, 12, 40 and 65 (Visit 2, 3, 4, 5, 7 and 9).
(§3) adverse events (AEs) and serious adverse events (SAEs) (number of patients who withdrew due to AEs; reason for withdrawal)

patients with early AD [2] = assay: AFF006 clinical trial: Quality of Life (QOL) caregiver; assay type: in vivo, human; conditions: 2 mg compared to 1 mg and other groups, over a period of 18 months, FIG. 5
Excerpt: Caregivers completed the measure as a questionnaire about their patients' QOL. The measure consisted of 13 items, rated on a 4 point scale, with 1 being poor and 4 being excellent. Outcomes are shown as the change over time using a least squares means from a mixed model.
QOL caregiver is a brief, 13-item questionnaire designed to specifically obtain a rating of the QOL of the patient from the caregiver's perspective. Questions cover relationships with friends and family, concerns about finances, physical condition, mood, and an overall assessment of life quality. All items are rated on a four-point scale, with 1 being poor and 4 being excellent. The total score is the sum of all items, which can range from 13 to 52. QOL caregiver values are presented here as the change from baseline. Outcomes were measured at Visits 1, 6, 8, and 10.

patients with early AD [3] = assay: AFF006 clinical trial: adverse event summary of local reactions; assay type: in vivo, human
Procedure: as §1, §2
At Visits 2, 3, 4, 5, 6, 7 and 9 possible local and systemic reactions to the vaccine and vital signs (blood pressure, heart rate, respiratory rate and body temperature) were assessed. In addition, a physical and neurological examination was performed. Efficacy parameters were assessed at Visits 1, 2, 3, 5, 6, 7, 8, 9, 10. The final visit (Visit 10) was performed twelve weeks after the last administration of study drug (Visit 9). An early discontinuation visit (EDV) was performed when a patient discontinued from the clinical trial.
During the study Visits 2, 3, 4, 5, 7 and 9 the patient received study drug by the investigator, in total: six injections over a 65-week treatment period. Injections were applied to the external surface of the upper arm, approximately 8-10 cm above the elbow. Prerequisite regarding the actual site was the presence of an intact regional lymph node station. If the draining lymph node stations of both upper arms were not intact, injection was placed into the thigh close to the inguinal lymph nodes. Two alternating injection sites (e.g. left and right upper arm, left upper arm and left thigh) were used throughout the 6 injections.
Injections were applied to the subcutaneous tissue (s.c.). Special care was taken to avoid […] application by careful aspiration before each injection. All administrations were performed at the trial site.
Safety evaluations included the following:
as §3

[4] = system: respective immunizing peptide; assay: ELISA titer of vaccination induced IgG Abs against immunizing peptide in Tg2576-mice; assay type: in vivo; conditions: 6x s.c. at 4-week intervals, plasma at sacrification, background 1/100, FIG. 6A
Procedure: Alum doses used were equivalent to 2 mg/ml. Vaccination induced Abs were measured in plasma samples taken at sacrification (SeqID 1 (n=10), […], KLH-Alum (n=10) and Alum only (n=8)). Samples were analyzed for their concentration of IgG Abs against specific peptides. Values depicted are the titer calculated as OD max/2 (at 405 nm) plus SEM. IgG response towards the respective immunizing peptide (SeqID 1: anti SeqID 1; SeqID 2: anti SeqID 2, KLH-Alum: anti KLH, Alum: anti AD02); B) Reactivity towards human Aβ1-40/42 after immunization. […] Background for this assay was set to 1/100, indicated by black lines and an asterisk in A+B.
Substrates used include human (BACHEM, CH) Aβ1-40/42 (at 5 μg/ml), KLH (1 μg/ml) and peptide-Bovine serum albumin (BSA) conjugates (SeqID 1 and SeqID 2, 1 μM). Optical density (OD) was measured at 405 nm using a micro-well reader (Tecan, CH). ODmax/2 was calculated.
To test the immunogenicity of two Aβ targeting vaccines SeqID 1-KLH-Alum and SeqID 2-KLH Alum in comparison to KLH-Alum and Alum (Aluminium-oxyhydroxide) only, Tg2576-mice were injected 6×, s.c., at 4-week intervals with either conjugate-vaccine containing 30 μg net peptide, equivalent doses of KLH formulated with Alum or Alum only. […] Vaccination induced Abs were measured in plasma samples taken at sacrification (SeqID 1 (n=10), SeqID 2 (n=8), KLH-Alum (n=10) and Alum only (n=8)).

Ovalbumin = molecular target: T1, Ovalbumin (Gallus gallus, UniProt P01012); conditions: pH 7.4; cited from earlier work
T1 sequence (P01012 1-386): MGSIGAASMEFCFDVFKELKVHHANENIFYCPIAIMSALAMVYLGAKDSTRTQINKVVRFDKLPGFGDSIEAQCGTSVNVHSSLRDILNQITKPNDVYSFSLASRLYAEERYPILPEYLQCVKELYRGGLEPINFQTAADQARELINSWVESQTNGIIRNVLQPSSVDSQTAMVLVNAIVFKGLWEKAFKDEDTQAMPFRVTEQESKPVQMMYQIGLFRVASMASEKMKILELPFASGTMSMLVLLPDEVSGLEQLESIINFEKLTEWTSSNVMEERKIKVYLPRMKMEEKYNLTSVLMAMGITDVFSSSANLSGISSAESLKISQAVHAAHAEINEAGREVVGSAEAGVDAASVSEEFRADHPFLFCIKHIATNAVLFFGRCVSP

[5] = aluminium oxyhydroxide; cited from earlier work
human Aβ1-40/42 = assay: ELISA reactivity of vaccination induced Abs towards human Aβ1-40/42 in Tg2576-mice; assay type: in vivo; conditions: 6x s.c. at 4-week intervals, plasma at sacrification, background 1/100, FIG. 6B
Procedure: Alum doses used were equivalent to 2 mg/ml. Vaccination induced Abs were measured in plasma samples taken at sacrification (SeqID 1 (n=10), SeqID (n=8), KLH-Alum (n=10) and Alum only (n=8)). Samples were analyzed for their concentration of IgG Abs against specific peptides. Values depicted are the titer calculated as OD max/2 (at 405 nm) plus SEM. […] Background for this assay was set to 1/100, indicated by black lines and an asterisk in A+B.

## aluminium oxyhydroxide
Patients with early AD [1]; 1 mg s.c., N = 48
  Reason for Discontinuation from the Study: Death: subjects %: (4.2%)
  Reason for Discontinuation from the Study: Death: subjects n: 2
Patients with early AD [1]; 2 mg s.c., N = 51
  Reason for Discontinuation from the Study: Death: subjects %: (0.0%)
  Reason for Discontinuation from the Study: Death: subjects n: 0
Patients with early AD [2]
  QOL of the patient rated by caregivers (QOL-AD): significantly improved
Patients with early AD [3]; 1 mg s.c., N = 48
  Musculoskeletal and Connective Tissue Disorders: Pain in Extremity: events: 0
  Musculoskeletal and Connective Tissue Disorders: Pain in Extremity: subjects %: 0.0%
  Musculoskeletal and Connective Tissue Disorders: Pain in Extremity: subjects n: 0
  Vascular Disorders: Haematoma: subjects n: 0
Patients with early AD [3]; 2 mg s.c., N = 51
  Musculoskeletal and Connective Tissue Disorders: Pain in Extremity: events: 1
  Musculoskeletal and Connective Tissue Disorders: Pain in Extremity: subjects n: 1
  Vascular Disorders: Haematoma: subjects n: 0
[4]
  IgG titer towards the peptide used for immunization (ODmax/2): did not elicit signals above background
Ovalbumin
  maximal binding capacity to Ovalbumin (pI 4.6): 1.6±0.1 mg protein/mg aluminum
[5]
  point of zero charge: ~11 pH
Human Aβ1-40/42
  Abs reactivity towards human Aβ1-40/42: did not elicit signals above background; also recorded: do not show reactivity above background
